According to paper PMC8404199, “Structure–Activity Relationships of Triple-Action Platinum(IV) Prodrugs with Albumin-Binding Properties and Immunomodulating Ligands” (Journal of Medicinal Chemistry, 2021):
Where two headings read alike, the source gives them in different places.

Columns and labels:
[1] = tested on: tumor-infiltrating T-cell populations; assay: Flow cytometry of T-cell populations in CT26 tumors and tumor-draining lymph nodes; assay type: in vivo, Balb/c mice; conditions: 24 h after single iv treatment equimolar to 9 mg/kg oxaliplatin
Description: CT26 cells (5 × 10^5 cells in 50 μL of serum-free RPMI medium) were injected into the right flank of female Balb/c mice (n = 4 per group). On day 7, when the tumors reached a mean tumor volume of ∼170 mm^3, mice were treated once iv with MalEs/IdoCa at a concentration equimolar to 9 mg/kg (dissolved in 20% PG in PBS) or solvent only. After 24 h, the animals were sacrificed, and tumor tissues and the tumor-draining lymph nodes were isolated. Tissues were collected in a tube with 750 μL of ice-cold PBS containing 5% FBS and cut into small pieces. Samples were digested using PBS containing 50 mg/mL collagenase (C2139, Merck, Darmstadt, Germany) and 50 mg/mL DNase I (DN25, Darmstadt, Germany) and filtered several times through a 70 μm cell strainer (734-2761, VWR, Pennsylvania, USA). The samples were centrifuged, and cell pellets were treated with ammonium–chloride–potassium (ACK)-buffer (150 mM NH4Cl, 10 mM KHCO3, 127 μM EDTA, pH 7.2–7.4) to lyse red blood cells and centrifuged in a Würzburg buffer (PBS containing 5% FBS, 5 mM EDTA, 20 μg/mL DNase I).
Cells were washed with PBS and stained using the Aqua Zombie Fixable Viability Kit (423101, BioLegend, California, USA), according to the manufacturer’s instructions. […] The cleaned up data were analyzed using the gating strategy, as shown in Figure S15 for murine tissue and Figure S16 for human co-culture experiment.

IDO = assay: LC-HRMS of 1-MDT and Trp metabolites in tumor tissue; assay type: in vivo, mice; conditions: 24 h after treatment
Description: To 50 mg of tumor tissue, 50 μL of fully ^13C internal standard (labeled yeast extract prepared in 2 mL of H2O; ISOtopic solutions e.U., Vienna, Austria) and 950 μL of 80% MeOH (LC–MS grade, Sigma-Aldrich, Vienna, Austria) were added and homogenized in a Dounce-type glass tissue grinder. The homogenate was collected, the tissue homogenizer was washed twice with 400 μL 80% MeOH (LC–MS grade, Sigma-Aldrich, Vienna, Austria), and the washing solution was added to the homogenate. The samples were vortexed, centrifuged (14,000g, 4 °C, 20 min), and kept on dry ice until further processing. 500 μL of tumor sample aliquots was dried for direct LC–HRMS analysis.
All samples were resuspended in 100 μL of water (supernatant sample: same volume; tumor samples 5-fold concentration) and measured using a 12 min method based on reversed-phase chromatography (column: HSS T3, 1.8 μm, 2.1 × 150 mm, Waters) and high-resolution mass spectrometry (Orbitrap HF, Thermo). For quantification, multi-point calibration with external standard mixes (Kyn, Trp, and kynurenic acid) using co-eluting ^13C internal standards was performed and analyzed by Skyline 20.2.0.286. For 1-MDT, relative quantification based on ^13C Trp normalization was performed.

[2] = Organ distribution of platinum in SKOV3-bearing SCID mice; conditions: 24 h after single iv dose equimolar to 9 mg/kg oxaliplatin; for Platinum ratio tumor:kidney / Platinum ratio tumor:liver: ratio of mean platinum levels
Description: For tissue digestion, approx. 25–50 mg of tissue was weighed into perfluoralkoxy tubes, and 2 mL of HNO3 and 100 μL H2O2 (30%, Suprapur, Merck, Darmstadt, Germany) were added. The solutions were placed on a hot plate and heated up for 7 h using a temperature program with a maximum of 200 °C. The liquids were transferred to 15 mL tubes with the remaining solution being removed by washing twice with 4 mL of ultrapure water.
Platinum concentrations were measured using an Agilent 7800 ICP-QMS instrument (Agilent Technologies, Tokyo, Japan) equipped with an Agilent SPS 4 autosampler (Agilent Technologies, Tokyo, Japan) and a MicroMist nebulizer at a sample uptake rate of approx. 0.2 mL/min. […] All of the measured samples were blank corrected (for the cell culture data, wells containing no cells were used). Elemental standard solutions were purchased from Labkings (Hilversum, The Netherlands). The instrument was tuned on a daily basis.
SKOV3 cells (1.5 × 10^6 cells in 50 μL serum-free medium) were injected subcutaneously into the right flank of male SCID mice. […] Then, the animals were sacrificed by cervical dislocation, and tumors and organs were collected for the measurement with ICP–MS. For plasma isolation, blood was collected in ethylenediaminetetraacetic acid (EDTA)-coated tubes and centrifuged for 10 min at 900g at 4 °C. Plasma was transferred to a new tube and centrifuged once more to remove residual red blood cells.

[3] = tested on: CT26 colon cancer allografts; assay: Anticancer activity against CT26 allografts in Balb/c mice; assay type: in vivo; conditions: iv, equimolar to 9 mg/kg oxaliplatin, twice a week for 2 weeks
Description: Every day, the animals were monitored for body weight and the enhanced stress level, and the tumor size was measured using a caliper according to the formula length × width^2/2.

[4] = UHPLC reduction kinetics with dithiothreitol; assay type: physicochemical; conditions: 1 mM complex, 10 mM DTT, 1% DMF, 500 mM phosphate buffer pH 7.4, 20 °C
Description: Figure S 3: Reduction kinetics of reference compounds with AA at 20°C , measured by UHPLC and UV absorption at 220 nm. A: Comparison of OAc/IPAEs with amino -group containing SucCa/IdoEs; B:
Reductive stability of reference compounds with no 1MDT -like ligand. AUC-values were normalized to t = 0. Experimental conditions: 1 mM complex, 10 mM AA in 1% DMF and 500 mM phosphate buffer […]
conditions: 1 mM complex, 10 mM DTT in 1% DMF and 500 mM phosphate buffer (pH 7.4). […]

[5] = UHPLC reduction experiments with L-ascorbic acid; assay type: physicochemical; conditions: 1 mM complex, 10 mM AA, pH 7.4, 20 °C
Description: The platinum(IV)–succinimide complexes were dissolved in 2% DMF in phosphate buffer (500 mM, pH 7.4) to a final concentration of 2 mM. The solutions were then mixed 1:1 with a 20 mM stock of L-ascorbic acid in phosphate buffer (500 mM, pH 7.4) to obtain final concentrations of 1 mM complex, 10 mM L-ascorbic acid, and 1% DMF. The samples were incubated at 20 °C and measured on a Dionex UltiMate 3000 RS UPLC system with a Waters Acquity UPLC BEH C18 column (3 × 50 mm, pore size 1.7 μm) and absorption detection at 220 nm. Data points were taken at t = 0 and every 30 min for 6 h.

human SKOV3 cancer cells = assay: MTT cytotoxicity assay in SKOV3 cells; assay type: cell-based; conditions: 72 h incubation, with 5 eq. AA; read-out: SKOV3 IC50 values + 5 eq. AA, mean
Description: (§1) The cells were seeded at 3500–6000 cells/well in 96-well plates depending on the proliferation rate of the respective cell line and allowed to recover for 24 h. Subsequently, the cells were treated at indicated concentrations for 48 or 72 h. Cells were additionally incubated with 5-fold equimolar concentrations of ascorbic acid to increase the reduction rate of the compounds. Cell viability was measured by the MTT-based vitality assay (EZ4U; Biomedica, Vienna, Austria), following the manufacturer’s recommendations.

[6] = tested on: human HCT116 colon cancer cells; assay: MTT cytotoxicity assay in HCT116 cells; assay type: cell-based
Description: (§2) Cells were additionally incubated with 5-fold equimolar concentrations of ascorbic acid to increase the reduction rate of the compounds. Cell viability was measured by the MTT-based vitality assay (EZ4U; Biomedica, Vienna, Austria), following the manufacturer’s recommendations.

[7] = tested on: murine CT26 colon cancer cells; assay: MTT cytotoxicity assay in CT26 cells; assay type: cell-based
Description: as §2

HCT116 cells = assay: Cellular platinum levels in HCT116 cells by ICP-MS; assay type: cell-based, human; conditions: HCT116, 20 μM, 3 h incubation
Description: HCT116 cells were seeded at 6 × 10^5 cells/well in a six-well plate and allowed to settle for 24 h. Cells were exposed to drugs at 20 μM for 3 h under normal cell culture conditions. Cells were washed twice with PBS and lysed at RT in 500 μL HNO3 (≥69%, Rotipuran Supra, Carl Roth, Karlsruhe, Germany) for 1 h. 400 μL of the lysate was transferred to 7.6 mL of ultrapure water (18.2 MΩ cm, Milli-Q Advantage, Darmstadt, Germany).
The instrument was tuned on a daily basis.

[8] = tested on: human embryonic kidney cells (HEK293); assay: MTT cytotoxicity assay in non-malignant HEK293 cells; assay type: cell-based; conditions: 72 h
Description: as §1

[9] = tested on: VM7 melanoma cancer cells; assay: MTT cytotoxicity assay in VM7 cells; assay type: cell-based, human; conditions: 72 h
Description: as §1

SKOV3 cancer cells = assay: Long-term cytotoxicity assay (crystal violet) in SKOV3 cells; assay type: cell-based, human; conditions: 168 h, crystal violet stain, mean ± SD
Description: SKOV3 cells were seeded in duplicates at 5000 cells/well in 24-well plates and allowed to recover for 24 h. Subsequently, the cells were treated at the indicated concentrations for 168 h. Cells were fixed with ice-cold methanol (20 min at 4 °C), washed with PBS, and stained with crystal violet. Subsequently, colony formation was inspected, and the fluorescence signal was detected using Typhoon Trio imager (GE Healthcare, Little Chalfont, UK) at 610/30 nm BP and analyzed by ImageJ software.

[10] = tested on: human hepatic cell line (WRL68); assay: MTT cytotoxicity assay in non-malignant WRL68 cells; assay type: cell-based; conditions: 72 h
Description: as §1

Compound: Cn1cc(C[C@@H](NC(=O)[O][Pt]2([O]C(=O)CCCCCN3C(=O)C=CC3=O)[O]C(=O)C(=O)[O]2)C(=O)O)c2ccccc21.N[C@@H]1CCCC[C@H]1N [MalEs/IdoCa, (OC-6-34)-[(R)-(1-Carboxy-2-(1-methyl-1H-indol-3-yl)ethyl)carbamato][(1R,2R)-1,2-cyclohexanediamino][6-(2,5-dioxo-2,5-dihydro-1H-pyrrol-1-yl)hexanoato]oxalatoplatinum(IV)]
- immune cell population in tumor-draining lymph nodes [1]: no effect
- ratio of CD4+ to CD8+ T cells in the malignant tissue [1]: significant shift
- IDO activity in tumor, Trp to Kyn ratio (in words) (IDO; compared to solvent- or MalCa/IdoEs-treated animals): inhibition of IDO activity indicated by an improved Trp to Kyn ratio
- 1-MDT levels in tumor, fold higher than upon MalCa/IdoEs treatment (IDO; SKOV3 tumor tissue): ~2 fold
- plasma platinum concentration, fold higher than oxaliplatin or OAc/OAc [2]: ~12 fold
- platinum levels in blood plasma [2]: 5.9 mg/kg
- Platinum ratio tumor:kidney [2]: 1.2
- Platinum ratio tumor:liver [2]: 0.7
- anticancer activity against CT26 tumors (in words) [3]: activity comparable to MalCa/IdoCa

Compound: CC(=O)[O][Pt]12([O]C(=O)CCc3cn(C)c4ccccc34)([NH]C3CCCCC3[NH]1)[O]C(=O)C(=O)[O]2 [OAc/IPAEs, (OC-6-44)-Acetato[(1R,2R)-1,2-cyclohexanediamino][3-(1-methyl-1H-indol-3-yl)propanoato]oxalatoplatinum(IV)]
- reduction in the presence of dithiothreitol (in words) [4]: stable under these conditions
- reduction kinetics with AA (in words) [5]: comparable reduction kinetics to the carbamate-linked complexes

Compound: O=C1[O][Pt]2([NH][C@@H]3CCCC[C@H]3[NH]2)[O]C1=O [oxaliplatin, reference compound]
- IC50 (human SKOV3 cancer cells): 43400 nM
- IC50 ([6]; 48 h incubation, with 5 equiv AA, read-out: HCT116 IC50 values +AA, mean ± SD): 670 ± 10 nM
- IC50 ([6]; 48 h incubation, without AA, read-out: HCT116 IC50 values, mean ± SD): 720 ± 10 nM
- IC50 ([6]; 72 h incubation, with 5 eq. AA, read-out: HCT116 IC50 values + 5 eq. AA, mean): 740 nM
- IC50 ([6]; 72 h incubation, without AA, read-out: HCT116 IC50 values, mean): 760 nM
- IC50 ([7]; 48 h incubation, with 5 equiv AA, read-out: CT26 IC50 values +AA, mean ± SD): 1530 ± 250 nM
- IC50 ([7]; 48 h incubation, without AA, read-out: CT26 IC50 values, mean ± SD): 1500 ± 390 nM
- IC50 ([7]; 72 h incubation, with 5 eq. AA, read-out: CT26 IC50 values + 5 eq. AA, mean): 2110 nM
- IC50 ([7]; 72 h incubation, without AA, read-out: CT26 IC50 values, mean): 1900 nM
- cellular platinum uptake (in words) (HCT116 cells): taken up by the cells much more efficiently than any of the platinum(IV) prodrugs
- IC50 [8]: 2100 nM
- IC50 [9]: 3940 nM
- IC50 (SKOV3 cancer cells): 6200 ± 1100 nM
- IC50 [10]: 8350 nM

Compound: Cn1cc(C[C@@H]([NH3+])C(=O)[O][Pt]2([O]C(=O)NCCCCCN3C(=O)C=CC3=O)[O]C(=O)C(=O)[O]2)c2ccccc21.N[C@@H]1CCCC[C@H]1N.O=C([O-])C(F)(F)F [MalCa/IdoEs, (OC-6-34)-[(R)-2-Ammonio-3-(1-methyl-1H-indol-3-yl)propanoato][(1R,2R)-1,2-cyclohexanediamino][5-(2,5-dioxo-2,5-dihydro-1H-pyrrol-1-yl)pentylcarbamato]oxalatoplatinum(IV) Trifluoroacetate]
- kynurenic acid in tumors (in words) (IDO): enhanced signals
- platinum levels in blood plasma [2]: 1.9 mg/kg
- Platinum ratio tumor:kidney [2]: 0.6
- Platinum ratio tumor:liver [2]: 0.6
- anticancer activity against CT26 tumors (in words) [3]: significant anticancer activity
